Assay results from US20110034413A1, “NOVEL QUERCETIN DERIVATIVES AS ANTI-CANCER AGENTS” (priority 2007, published 2011).
≈ marks a conversion by molar mass, not a printed value.

Key:
[1] = test system: PA-1 (Ovary) cancer cells; experiment: Colorimetric MTT conversion assay, PA-1; type: cell-based; conditions: Homo sapiens, 72 h exposure, 10 μM to 100 μM
Protocol: (§1) The anticancer potential of the novel Quercetin derivatives of formula (I) were evaluated and subsequently compared with Quercetin (II). The anticancer potential was determined by the colorimetric MTT conversion assay of Mossman. Human cancer cells representing ovary (PA-1; SK-OV-3); prostate (DU 145); lung (A-549) and normal fibroblast (NIH-3T3) were separately seeded at density of 1000 cells/well into 96 well plates in 180 μl of culture medium with 10% fetal calf serum. After 24 h, cells were incubated with different concentrations of the novel Quercetin derivatives ranging from 10 μM to 100 μM with relevant controls at 37° C. in a CO2 incubator in triplicate wells. The exposure medium (Quercetin derivatives in culture medium) of all the cells was refreshed after every 24 h. Cells were incubated with the derivatives for total of 72 h. The assay was terminated by the addition of 20 μl, of MTT solution (5 mg/ml) in each well and percentage cytotoxicity was calculated as given below. The IC50 values were determined by nonlinear regression using Prism software v 4.01.
(§2) Percentage Cytotoxicity=100×[1−(X/R1)], where X=absorbance of treated sample at 540 nm

[2] = test system: SKOV3 (Ovary) cancer cells; experiment: Colorimetric MTT conversion assay, SKOV3; type: cell-based; conditions: Homo sapiens, SK-OV-3, 72 h exposure, 10 μM to 100 μM
Protocol: as §1, §2

[3] = test system: DU 145 (Prostate) cancer cells; experiment: Colorimetric MTT conversion assay, DU 145; type: cell-based; conditions: Homo sapiens, 72 h exposure, 10 μM to 100 μM
Protocol: as §1, §2

[4] = Aqueous solubility by UV spectrophotometry (500 μM solutions in aqueous media from DMSO stock); type: physicochemical; conditions: for solubility: kinetic from dmso stock, aqueous media, 500 μM solution prepared from DMSO stock, UV OD at λmax; for Aqueous solubility compared with Quercetin (II) / QC-12 (IV), in words: comparison drawn from Table-II
Protocol: The aqueous solubility of the novel Quercetin derivatives of formula (I) were determined and subsequently compared with QC 12. 500 μM solutions of the various novel Quercetin derivatives were prepared in aqueous media from DMSO stock solution. The samples were scanned in UV spectrophotometer at its λmax to obtain optical density (O.D) of the compound. Concentration against the OD value was obtained by calibration curve constructed by plotting the Optical density Vs concentration of calibration standards of the compounds.
Calibration standards were prepared by diluting the stock solution of the compound further in suitable solvents ensuring the overall compound solubility. Calibration standard of concentration 500 μM, 200 μM, 50 μM, 12.5 μM and 3.13 μM were prepared. These calibration standards were scanned in UV spectrophotometer at its highest wavelength (λmax) to obtain the optical density values (OD). A standard curve was constructed by plotting the Optical density Vs concentration.

[5] = test system: NIH 3T3 (Normal) fibroblast; experiment: Colorimetric MTT conversion assay, NIH 3T3; type: cell-based; conditions: Mus musculus, NIH3T3, 72 h exposure, 10 μM to 100 μM
Protocol: as §1, §2

[6] = test system: different Cancer Cell Lines; experiment: Colorimetric MTT conversion assay, overall comparison over the cell line panel; type: cell-based, Human; conditions: comparison drawn from Table-IV
Protocol: as §1, §2

[7] = Plasma stability (half-life in plasma, 100 μM, 37° C., liquid chromatography); type: in vitro ADME; conditions: plasma spiked at 100 μM, incubated at 37° C.
Protocol: The Plasma stability of the novel Quercetin derivatives of formula (I) were evaluated by determining their half-life in plasma and subsequently compared with QC-12 (IV). Plasma samples of concentration 100 μM spiked with the compounds were incubated at 37° C. and at specified time point the samples were quenched using chilled acetonitrile. Samples were then analyzed using liquid chromatography to determine the concentration at respective time point. Half-life was calculated from the logarithmic curve drawn between time and concentration.

[8] = test system: A 549 (Lung) cancer cells; experiment: Colorimetric MTT conversion assay, A 549; type: cell-based; conditions: Homo sapiens, A549, 72 h exposure, 10 μM to 100 μM
Protocol: as §1, §2

Compound | IC50 [1] [µM] | IC50 [2] [µM] | IC50 [3] [µM] | solubility [4] [µM] | Aqueous solubility compared with Quercetin (II) / QC-12 (IV), in words [4] | half-life at 100 μM [7] [min] | IC50 [8] [µM] | IC50 [5] [µM] | Cytotoxic potential compared with Quercetin (II), in words [6]
CC(=O)OCOc1cc(-c2oc3cc(OCc4ccccc4)cc(O)c3c(=O)c2OCc2ccccc2)ccc1OCc1ccccc1 [Compound No. 2, (2-(Benzyloxy)-5-(3,7-bis(benzyloxy)-5-hydroxy-4-oxo-4H-chromen-2-yl)phenoxy)methyl acetate] | > 100 | > 100 | > 100 | 0.591 |  |  |  | > 100 | 
CC(C)(C)C(=O)OCOc1cc(-c2oc3cc(O)cc(O)c3c(=O)c2O)ccc1O [Compound No. 7, (2-hydroxy-5-(3,5,7-trihydroxy-4-oxo-4H-chromen-2-yl)phenoxy)methyl pivalate] | 20.9 | > 100 | 83.1 | 30.6 (≈ 12.7 µg/mL) | better solubility than Quercetin (II) | 6.24 |  | > 100 | better cytotoxic potential than Quercetin (II)
CCCC(=O)OCOc1cc(-c2oc3cc(OCc4ccccc4)cc(O)c3c(=O)c2OCc2ccccc2)ccc1OCc1ccccc1 [Compound No. 13, (2-(Benzyloxy)-5-(3,7-bis(benzyloxy)-5-hydroxy-4-oxo-4H-chromen-2-yl)phenoxy)methyl butyrate] | > 100 | > 100 | > 100 | < 3.13 |  |  | > 100 | > 100 | 
CCCC(=O)OCOc1cc(-c2oc3cc(O)cc(O)c3c(=O)c2O)ccc1O [Compound No. 14, (2-hydroxy-5-(3,5,7-trihydroxy-4-oxo-4H-chromen-2-yl)phenoxy)methyl butyrate] | < 10 | 94.6 | > 100 | 199 (≈ 80.1 µg/mL) | solubility comparable to QC-12 (IV) | < 3 | 61.9 | > 100 | better cytotoxic potential than Quercetin (II)
O=C(O)CNC(=O)Oc1cc(-c2oc3cc(O)cc(O)c3c(=O)c2O)ccc1O [QC-12 (IV), reference compound] |  |  |  | > 200 |  | 43.9 |  |  | 

More lines, main results first:

IC50 [1] [µM] | IC50 [2] [µM] | IC50 [3] [µM] | solubility [4] [µM] | Aqueous solubility compared with Quercetin (II) / QC-12 (IV), in words [4] | half-life at 100 μM [7] [min] | IC50 [8] [µM] | Compound | IC50 [5] [µM] | Cytotoxic potential compared with Quercetin (II), in words [6]
> 100 | > 100 | > 100 | 1.48 (≈ 1.02 µg/mL) |  |  |  | CC(C)(C)C(=O)OCOc1cc(-c2oc3cc(OCc4ccccc4)cc(O)c3c(=O)c2OCc2ccccc2)ccc1OCc1ccccc1 [Compound No. 1, (2-(Benzyloxy)-5-(3,7-bis(benzyloxy)-5-hydroxy-4-oxo-4H-chromen-2-yl)phenoxy)methyl pivalate] | > 100 | 
19.4 | > 100 | > 100 | 16.5 | better solubility than Quercetin (II) | < 3 |  | CC(=O)OCOc1cc(-c2oc3cc(O)cc(O)c3c(=O)c2O)ccc1O [Compound No. 8, (2-hydroxy-5-(3,5,7-trihydroxy-4-oxo-4H-chromen-2-yl)phenoxy)methyl acetate] | > 100 | better cytotoxic potential than Quercetin (II)
35.3 | 88.4 | > 100 | 4.02 (≈ 1.22 µg/mL) |  |  | 83.7 | O=c1c(O)c(-c2ccc(O)c(O)c2)oc2cc(O)cc(O)c12 [Quercetin (II), 2-(3,4-Dihydroxyphenyl)-3,5,7-trihydroxy-4H-1-benzopyran-4-one, reference compound] | 68.7 | 
